Results: ChEMBL document CHEMBL3745645, “Synthesis, in vitro antitumor activity, dihydrofolate reductase inhibition, DNA intercalation and structure-activity relationship studies of 1,3,5-triazine analogues” (Bioorg Med Chem Lett, 2016)
The source made the active and inactive calls. The rule behind the calls is not given here.

Legend:
Calf thymus DNA = experiment: Binding affinity to calf thymus DNA at 25 uM by UV-vis spectrometric analysis; format: nucleic-acid assay; settings: Bos taurus
RXF 393 = experiment: Cytotoxicity against human RXF393 cells at 10 uM after 48 hrs by SRB assay; format: functional
Hs-578T = experiment: Cytotoxicity against human Hs 578T cells at 10 uM after 48 hrs by SRB assay; format: functional
HCT-116 = experiment: Cytotoxicity against human HCT116 cells at 10 uM after 48 hrs by SRB assay; format: functional
SF-539 = experiment: Cytotoxicity against human SF539 cells at 10 uM after 48 hrs by SRB assay; format: functional
SNB-75 = experiment: Cytotoxicity against human SNB75 cells at 10 uM after 48 hrs by SRB assay; format: functional
OVCAR-3 = experiment: Cytotoxicity against human OVCAR3 cells at 10 uM after 48 hrs by SRB assay; format: functional
CAKI-1 = experiment: Cytotoxicity against human Caki1 cells at 10 uM after 48 hrs by SRB assay; format: functional
DU-145 = experiment: Cytotoxicity against human DU145 cells at 10 uM after 48 hrs by SRB assay; format: functional
HOP-62 = experiment: Cytotoxicity against human HOP62 cells at 10 uM after 48 hrs by SRB assay; format: functional
HOP-92 = experiment: Cytotoxicity against human HOP92 cells at 10 uM after 48 hrs by SRB assay; format: functional
SW-620 = experiment: Cytotoxicity against human SW620 cells at 10 uM after 48 hrs by SRB assay; format: functional
SF-268 = experiment: Cytotoxicity against human SF268 cells at 10 uM after 48 hrs by SRB assay; format: functional
IGROV-1 = experiment: Cytotoxicity against human IGROV1 cells at 10 uM after 48 hrs by SRB assay; format: functional
OVCAR-5 = experiment: Cytotoxicity against human OVCAR5 cells at 10 uM after 48 hrs by SRB assay; format: functional
OVCAR-8 = experiment: Cytotoxicity against human OVCAR8 cells at 10 uM after 48 hrs by SRB assay; format: functional
NCI/ADR-RES = experiment: Cytotoxicity against human NCI-ADR-RES cells at 10 uM after 48 hrs by SRB assay; format: functional
SK-OV-3 = experiment: Cytotoxicity against human SKOV3 cells at 10 uM after 48 hrs by SRB assay; format: functional
[1] = Cytotoxicity against human HL-60(TB) cells at 10 uM after 48 hrs by SRB assay; format: functional; settings: HL-60, 48 h, read-out: GI

SMILES: Cc1nc2ccc(Nc3nc(NCCN4CCOCC4)nc(Nc4ccc(F)cc4)n3)cc2n1Cc1ccccc1
- Activity (Calf thymus DNA): Active

SMILES: Cc1nc2cc(Nc3nc(Nc4ccc(F)cc4)nc(N4CCN(C)CC4)n3)ccc2n1Cc1ccccc1
- growth inhibition (GI) (RXF 393): Active
- growth inhibition (GI) (Hs-578T): Active
- growth inhibition (GI) (HCT-116): Active
- growth inhibition (GI) (SF-539): Active
- growth inhibition (GI) (SNB-75): Active
- growth inhibition (GI) (OVCAR-3): Active

SMILES: Cc1nc2cc(Nc3nc(Nc4ccc(F)cc4)nc(N4CCCC4)n3)ccc2n1Cc1ccccc1
- growth inhibition (GI) (CAKI-1): Active
- growth inhibition (GI) (RXF 393): Active
- growth inhibition (GI) (DU-145): Active
- growth inhibition (GI) (HOP-62): Active
- growth inhibition (GI) (HOP-92): Active
- growth inhibition (GI) (HCT-116): Active
- growth inhibition (GI) (SW-620): Active
- growth inhibition (GI) (SF-268): Active
- growth inhibition (GI) (SF-539): Active
- growth inhibition (GI) (SNB-75): Active
- growth inhibition (GI) (IGROV-1): Active
- growth inhibition (GI) (OVCAR-3): Active
- growth inhibition (GI) (OVCAR-5): Active
- growth inhibition (GI) (OVCAR-8): Active
- growth inhibition (GI) (NCI/ADR-RES): Active
- growth inhibition (GI) (SK-OV-3): Active

SMILES: Cc1nc2cc(Nc3nc(Nc4ccc(F)cc4)nc(-c4cccs4)n3)ccc2n1Cc1ccccc1
- inhibition of growth at 10 µM [1]: 71.9%

SMILES: Cc1nc2ccc(Nc3nc(Cl)nc(Nc4ccc(F)cc4)n3)cc2n1Cc1ccccc1
- growth inhibition (GI) (OVCAR-5): inactive
